Source: patent US6849596B1, “Regulatory/unfolding peptides of ezrin” (priority 1999, dated 2005)
“Also recorded” adds a separate entry of the source.

Tests used:
[1] = tested on: transplanted cervical cancer CUC-5; experiment: Transplanted mouse cervical cancer model CUC-5; assay type: in vivo, CBA mice; details: for Percent decrease in tumour volume relative to control / Days of life expectancy: CUC-5; for Days of life expectancy: control 47-76
Excerpt: Anticancer Activity of Hepreceptor Peptides on the Growth of Transplanted Sarcoma of the Uterus SM-322 and on Cancer of the Uterine Cervix CUS-5 Performed in CBA Mice Using Rupe312 and Rupe414 as Examples
Transplanted mouse cervical cancer model CUC-5 (epithelial tumour)
Primary tumours were induced in female mice using methylcholantrene. A few primary turnouts were then auto-transplanted into the uterine cervix. The life expectancy of mice with transplanted tumours was 43 days.
CBA female mice weighed 21.4=/−1.2 g. and were 2-3 months old. The tumours were introduced as a 0.5 ml of tumour suspension (1 g tumour per 10 ml of Igla medium) and ten mice used in each treatment group.
Lyophylised peptide were dissolved in sterile physiological saline immediately before use in three concentrations. 0.5 ml of solution was injected twice weekly into the peritoneum of the mice for the duration of the experiment. Three different concentrations of peptide were used leading to three final doses per injection per mouse of 10, 1.0 and 0.1 micrograms.
The average percent decrease of tumour volume relative to the control group was recorded at three time points. The longevity of the mice in the treatment groups and control groups was compared and the histology of the tumours between control and treatment groups was compared.

[2] = tested on: transplanted sarcoma of the uterus SM-322; experiment: Transplanted mouse sarcoma SM-322 model; assay type: in vivo, CBA mice; details: for Percent decrease in tumour volume relative to control: SM-322
Excerpt: Anticancer Activity of Hepreceptor Peptides on the Growth of Transplanted Sarcoma of the Uterus SM-322 and on Cancer of the Uterine Cervix CUS-5 Performed in CBA Mice Using Rupe312 and Rupe414 as Examples Transplanted mouse sarcoma SM-322 model (endothelial tumour). Primary tumours of the uterus were induced in female mice using 1.2 dimethylhydrazine. A few primary tumours were transplanted into syngeneic mice. The first visible nodules started to appear at the point of transplation after 4 days. The life expectancy of the mice with transplanted tumours was 22-24 days. […] The tumours were introduced as a 0.5 ml of tumour suspension (1 g tumour per 10 ml of Igla medium) and ten mice used in each treatment group. […] The average percent decrease of tumour volume relative to the control group was recorded at three time points. The longevity of the mice in the treatment groups and control groups was compared and the histology of the tumours between control and treatment groups was compared.

[3] = tested on: transplanted sarcoma of the uterus SM-322; experiment: Transplanted mouse sarcoma SM-322 model; assay type: in vivo, CBA mice; details: control 12-16
[4] = tested on: HLA Class I on human White Blood Cells; experiment: Expression of MHC (HLA) Class I on human White Blood Cells; assay type: cell-based; details: 0.003 micrograms per ml
Excerpt: A cell specific effect of this activation was an increase in the population of monocytes expressing MHC Class I and a decrease in the population of CD8 lymphocytes expressing MHC Class I.

activated macrophages = experiment: Induction of activated macrophages in mice (peritoneal exsudate); assay type: in vivo
Method: Groups of three mice (CDAxC57B1)F1 weighing 22-24 g were injected abdominally with each peptide solution of 1.0 microgram of peptide dissolved in 0.5 ml of physiological saline. After 24 hours the animals were killed using neck vertebrae dislocation and 5 ml of Hanks solution was injected into the abdomen. The abdomen was massaged for 30 seconds and then the peritoneal liquid was collected. The collected liquid was filtered using a nylon filter into siliconised tubes containing 1.5 mg/ml EDTA. The number of nucleus containing cells in […] of filtrate were then assessed under microscopic examination using a Nihon hemocytometer. The cells were pelleted by centrifugation for 5 minutes at 800 g, the pellet was resuspended in fetal calf serum, the cell suspension was dropped on to a glass microscope slide and dried then fixed in methanol and stained with Romanovski's colouring agent. Morphological analysis of the cells of the peritoneal exsudate were performed using an Opton optical microscope at 1600 magnifications. The number of lymphocytes, resting macrophages, activated macrophages, granulocytes and other cell types were assessed.

[5] = tested on: human Peripheral Blood Mononuclear Cells; experiment: In vitro activation of human PBMC, tritiated thymidine incorporation; assay type: cell-based; details: for incorporation of 3H thymidine: three days, Control 370
Method: Peripheral Blood Mononuclear Cells (PBMC) were separated from the peripheral blood of a […] donor using the standard method of fractionation in a ficoll gradient. The PBMC were suspended in culture medium containing RPMI1640 medium plus 10% fetal calf serum, 1 mM L-glutamin and antibiotics (BM). The cell suspension was placed in wells of a 96 hole microwell plate for cell cultivation, (100 microliters of suspension containing 100,000 cells per well). […] The negative control well contained BM but no peptide. The plate was incubated at 37° C. for three days then radioactive ^3H thymidine was added to a final concentration of 1 microcurie per ml. The incorporation of ^3H thymidine into the DNA of the cells was measured using a betacounter using standard procedures. The experiment was repeated twice and the results expressed as an average of the two experiments in radioactive counts per minute.

[6] = 0.1 Microg/mouse IP twice weekly, Day 8
[7] = 0.1 Microg/mouse IP twice weekly, Day 12
[8] = 0.1 Microg/mouse IP twice weekly
[9] = 1 Microg/mouse IP twice weekly, Day 8
[10] = 1 Microg/mouse IP twice weekly, Day 12
[11] = 10 Microg/mouse IP twice weekly, Day 8
[12] = 10 Microg/mouse IP twice weekly, Day 12
[13] = 10 Microg/mouse IP twice weekly

With “KRRETVEREKE (Hepreceptor peptide) [Rupe414]” the “Percent decrease in tumour volume relative to control” value [1, 6] was 50%, the “Percent decrease in tumour volume relative to control” value [1, 7] was 18% and the “Percent decrease in tumour volume relative to control” value ([1]; 0.1 Microg/mouse IP twice weekly, Day 19) was 57%. The “Days of life expectancy” value [1, 8] was 47 to 76 days, the “Percent decrease in tumour volume relative to control” value [1, 9] was 50% and the “Percent decrease in tumour volume relative to control” value [1, 10] was 16%. The “Percent decrease in tumour volume relative to control” value ([1]; 1 Microg/mouse IP twice weekly, Day 19) was 43%, the “Days of life expectancy” value ([1]; 1 Microg/mouse IP twice weekly) was 36 to 76 days and the “Percent decrease in tumour volume relative to control” value [1, 11] was 50%. For the same sequence, the “Percent decrease in tumour volume relative to control” value [1, 12] was 16%, the “Percent decrease in tumour volume relative to control” value ([1]; 10 Microg/mouse IP twice weekly, Day 19) was 48% and the “Days of life expectancy” value [1, 13] was 36 to 76 days. For the same sequence, the “change in life expectancy” value ([1]; slower growing transplanted cervical cancer) was “no significant increase (or decrease) in life expectancy was detected”, the “Percent decrease in tumour volume relative to control” value [2, 6] was 68% and the “Percent decrease in tumour volume relative to control” value [2, 7] was 39%. The “Percent decrease in tumour volume relative to control” value ([2]; 0.1 Microg/mouse IP twice weekly, Day 15) was 22%, the “Percent decrease in tumour volume relative to control” value [2, 9] was 68% and the “Percent decrease in tumour volume relative to control” value [2, 10] was 28%. The “Percent decrease in tumour volume relative to control” value ([2]; 1 Microg/mouse IP twice weekly, Day 15) was 43%, the “Percent decrease in tumour volume relative to control” value [2, 11] was 65% and the “Percent decrease in tumour volume relative to control” value [2, 12] was 43%. The “Percent decrease in tumour volume relative to control” value ([2]; 10 Microg/mouse IP twice weekly, Day 15) was 43%, the “histology of the tumours” value ([2]; both models (SM-322 and CUC-5)) was “non bleeding ulcerous destruction of the centre of tumours” and the “Days of life expectancy” value [3, 8] was 12 to 19 days. The “Days of life expectancy” value ([3]; 1 Microg/mouse IP twice weekly) was 12 to 20 days, the “Days of life expectancy” value [3, 13] was 13 to 20 days and the “relative activity in lowering intensity of HLA expression on WBC” value ([4]; 24 hours) was “more active than HEP1”. The “Density of cell surface expression of HLA Class I, rebased to 100 for control” value (“Density” for short) ([4]; B and NK cells, 24 hours) was 77, the “Percentage of cell population expressing HLA Class I, rebased to 100 for control” value (from here on “Percentage”) ([4]; B and NK cells, 24 hours) was 101 and the “Density” value ([4]; CD4 lymphocytes, 24 hours) was 77. For the same sequence, the “Percentage” value ([4]; CD4 lymphocytes, 24 hours) was 105, the “Density” value ([4]; CD8 lymphocytes, 24 hours) was 76 and the “Percentage” value ([4]; CD8 lymphocytes, 24 hours) was 89. The “Density” value ([4]; Granulocytes, 24 hours) was 85, the “Percentage” value ([4]; Granulocytes, 24 hours) was 98 and the “Percentage” value ([4]; Monocytes/Macrophages, 24 hours) was 109. The “Density” value ([4]; Monocytes/Macrophages, 24 hours at 37° C.) was 83, the “activity in increasing activated macrophages relative to HEP1” value (activated macrophages; 1.0 microgram peptide/mouse) was “significantly more active than HEP1” and the “Activated macrophages as a percent of total number of cells” value (activated macrophages; 1.0 microgram peptide/mouse injected abdominally, after 24 hours, saline 1.9) was 8.5%. For the same sequence, the “activity relative to HEP1” value ([5]; PBMC activation, thymidine incorporation) was “significantly more active than HEP1; also recorded: ten fold higher activity than HEP1”, the “concentration of peak activity” value ([5]; PBMC proliferation) was “around 3 nanograms/ml” and the “incorporation of 3H thymidine” value ([5]; Peptide 0.0001 micro g/ml) was 493 radioactive counts per minute. For the same sequence, the “incorporation of 3H thymidine” value ([5]; Peptide 0.0003 micro g/ml) was 580 radioactive counts per minute, the “incorporation of 3H thymidine” value ([5]; Peptide 0.001 micro g/ml) was 684 radioactive counts per minute and the “incorporation of 3H thymidine” value ([5]; Peptide 0.003 micro g/ml) was 2087 radioactive counts per minute. For the same sequence, the “incorporation of 3H thymidine” value ([5]; Peptide 0.01 micro g/ml) was 650 radioactive counts per minute, the “incorporation of 3H thymidine” value ([5]; Peptide 0.03 micro g/ml) was 596 radioactive counts per minute and the “incorporation of 3H thymidine” value ([5]; Peptide 0.1 micro g/ml) was 485 radioactive counts per minute. For the same sequence, the “incorporation of 3H thymidine” value ([5]; Peptide 0.3 micro g/ml) was 492 radioactive counts per minute, the “incorporation of 3H thymidine” value ([5]; Peptide 1 micro g/ml) was 449 radioactive counts per minute and the “incorporation of 3H thymidine” value ([5]; Peptide 3 micro g/ml) was 437 radioactive counts per minute. The “incorporation of 3H thymidine” value ([5]; Peptide 10 micro g/ml) was 394 radioactive counts per minute.
